Results: patent publication EP4781984A1 (Beyang Therapeutics Co., Ltd., priority 2023, dated 2025)
In brackets after ≈: the same amount, converted by molar mass.

Experiments:
EGFR = target: T1, EGFR (Homo sapiens, UniProt P00533); experiment: Kinase inhibitory activity, Mobility Shift Assay (EGFR); format: biochemical
T1 construct: purchased Carna 08-115
Procedure: (§1) Assay for Inhibitory Activity of Compounds Against VEGFR and EGFR Kinases
(§2) This assay directly monitors the inhibitory activity of compounds on kinase phosphorylation by measuring non-phosphorylated and phosphorylated substrates in the kinase reaction using Mobility Shift Assays/IMAP™ analysis. Table 2. Reagents and Instruments
(§3) Kinase and DTT were added to 1X kinase buffer to form a 2.5X kinase solution; 10 µL of the 2.5X kinase solution was transferred to a 384-well reaction plate, and 1X kinase buffer was added to the negative control wells. The plate was incubated at room temperature for 10 minutes; FAM-labeled peptide, MgCl2, ATP, and other reagents were added to 1X kinase buffer to form a 2.5X substrate solution; 10 µL of the above 2.5X substrate solution was transferred to the 384-well reaction plate; the plate was incubated at 28°C for varying times, and then 25 µL of stop solution was added to the 384-well reaction plate to terminate the reaction. Conversion rate data were read on a CaliperEZ Reader II. […] IC50 values were fitted using XLFit excel add-in version 5.4.0.8. Y = Bottom + (Top−Bottom)/(1 + […]) [formula]
(§4) X is the log value of compound concentration, Y is the inhibition rate (% inhibition).

VEGFR2 = target: T2, VEGFR2 (Homo sapiens, UniProt P35968); experiment: Kinase inhibitory activity, Mobility Shift Assay (VEGFR2); format: biochemical
T2 construct: purchased Carna 08-191
Procedure: as §1, §2, §3, §4

[1] = Thermodynamic solubility test; format: physicochemical; settings: buffer solution, aqueous buffer, thermodynamic from solid; thermodynamic solubility, room temperature, 8 hours shaking; buffers pH 2.0, 6.5, 7.4 used, pH of the tabulated value not given
Procedure: Solubility Test of Compounds
Table 9. Reagents and Instruments
After sonication for 10 minutes, they were fixed on a shaker and shaken at room temperature for 8 hours. After shaking, they were sonicated for 10 minutes and centrifuged at 13000 rpm for 15 minutes. 0.1 mL of supernatant was aspirated into a new tube, rinsed with 5 mL of buffer by shaking, and the liquid was discarded. 0.5 mL of supernatant was transferred again to a new tube, centrifuged at 13000 rpm for 15 minutes, and the supernatant was taken (diluted with water if necessary) for LC-MS injection analysis. Sample concentrations were quantified using a 3-5 point calibration curve.

melanin = experiment: Compound binding to melanin; format: in vitro ADME; settings: cuttlefish (Sepia officinalis), melanin suspension (1 mg/mL), percentage of free drug (not bound to melanin), 2 µM compound, melanin 1 mg/mL in PBS pH 7.4, 37°C
From the text: Detection of Compound Binding to Melanin
Pigmented ocular tissues contain melanin within intracellular melanosomes. Drugs bind to melanin to varying degrees, from no binding to extensive binding. Therefore, melanin binding is an important characteristic affecting ocular drug delivery and biodistribution. The ability of compounds to bind to melanin must be considered in ocular drug development.
Melanin derived from cuttlefish (Sepia officinalis) melanin was purchased from Sigma Aldrich (St Louis, MO).
First, prepare a 1 mg/mL melanin suspension in PBS (pH 7.4). As a matrix washing step, suspended particles were centrifuged at 3000 rpm for 5 minutes. The resulting pellet was resuspended in fresh PBS buffer, heated to 37°C with continuous shaking, and incubated for 1 hour. Accurately pipette 2 microliters of test compound stock solution (0.1 mM) into 98 microliters of melanin suspension (1 mg/mL), resulting in a final incubation concentration of 2 µM. Similarly, accurately pipette 2 microliters of stock solution (0.1 mM) into 98 microliters of PBS buffer (containing 0.1% BSA) as a blank control sample. Samples were incubated at 37°C for 2 hours on a shaker (80-90 rpm). Then centrifuged at room temperature. 50 microliters of supernatant was aspirated and added to 50 microliters of precipitation agent (containing internal standard). All samples above were subjected to protein precipitation, centrifuged, the supernatant was taken, diluted with water (if necessary), and then injected for analysis. Simultaneously, high-binding compounds Sunitinib and chloroquine, and the low-binding compound celecoxib were measured as positive controls. An LC-MS/MS analytical method for determining compound concentration was established. The ratio of analyte/internal standard peak areas (Aanalyte/AIS) measured in the samples, calibrated by the dilution factor, was used as the surrogate concentration for data processing. The binding rate of the compound to melanin (Fb) is calculated by the formula: Fb = 100−(Ctest)/(Ccontrol) × 100% [formula]
Ctest is the drug concentration of the compound in the melanin incubation sample or the peak area ratio of the test compound to the internal standard. Ccontrol is the drug concentration of the compound in the blank control sample or the peak area ratio of the test compound to the internal standard. Percentage of free drug (Fu%) = 100 - Fb The binding rates of the compounds of the present invention to melanin are shown in the table below: Table 11. Binding Rate of Compounds to Melanin

T2 sequence (P35968 20-1356): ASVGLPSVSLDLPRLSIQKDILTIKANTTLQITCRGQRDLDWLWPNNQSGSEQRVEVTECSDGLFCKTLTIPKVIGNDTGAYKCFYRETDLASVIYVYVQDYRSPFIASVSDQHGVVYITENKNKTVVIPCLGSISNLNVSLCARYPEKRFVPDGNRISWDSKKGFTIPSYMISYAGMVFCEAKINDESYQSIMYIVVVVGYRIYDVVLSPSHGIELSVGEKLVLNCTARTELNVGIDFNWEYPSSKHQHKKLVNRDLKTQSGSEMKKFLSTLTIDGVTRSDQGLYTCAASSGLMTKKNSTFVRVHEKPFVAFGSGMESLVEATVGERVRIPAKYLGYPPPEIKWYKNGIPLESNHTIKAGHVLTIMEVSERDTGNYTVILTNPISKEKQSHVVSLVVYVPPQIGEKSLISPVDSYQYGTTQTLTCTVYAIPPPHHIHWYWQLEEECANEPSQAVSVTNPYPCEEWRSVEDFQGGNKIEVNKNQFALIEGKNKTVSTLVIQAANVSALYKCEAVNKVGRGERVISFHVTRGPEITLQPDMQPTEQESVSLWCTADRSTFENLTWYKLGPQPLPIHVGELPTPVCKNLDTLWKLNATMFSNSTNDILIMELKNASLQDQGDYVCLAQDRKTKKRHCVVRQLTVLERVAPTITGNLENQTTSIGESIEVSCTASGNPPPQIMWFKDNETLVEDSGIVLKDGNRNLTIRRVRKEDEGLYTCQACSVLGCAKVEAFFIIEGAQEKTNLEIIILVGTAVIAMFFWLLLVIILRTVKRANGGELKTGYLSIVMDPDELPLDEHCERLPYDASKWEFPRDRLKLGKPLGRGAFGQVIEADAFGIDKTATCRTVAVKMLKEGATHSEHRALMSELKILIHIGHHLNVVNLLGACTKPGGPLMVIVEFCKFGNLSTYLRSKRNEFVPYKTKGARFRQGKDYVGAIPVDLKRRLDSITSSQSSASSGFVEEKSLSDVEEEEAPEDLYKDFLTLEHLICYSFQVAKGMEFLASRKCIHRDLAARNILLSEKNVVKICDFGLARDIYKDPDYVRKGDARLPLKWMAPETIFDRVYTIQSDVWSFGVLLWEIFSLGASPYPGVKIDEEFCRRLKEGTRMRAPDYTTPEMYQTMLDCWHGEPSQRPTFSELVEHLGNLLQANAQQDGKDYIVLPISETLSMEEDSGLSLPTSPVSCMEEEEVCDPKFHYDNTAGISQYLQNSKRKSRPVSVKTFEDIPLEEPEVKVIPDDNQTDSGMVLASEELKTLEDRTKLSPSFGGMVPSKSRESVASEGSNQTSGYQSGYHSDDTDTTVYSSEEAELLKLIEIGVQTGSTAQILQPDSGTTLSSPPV
T1 sequence (P00533 25-1210): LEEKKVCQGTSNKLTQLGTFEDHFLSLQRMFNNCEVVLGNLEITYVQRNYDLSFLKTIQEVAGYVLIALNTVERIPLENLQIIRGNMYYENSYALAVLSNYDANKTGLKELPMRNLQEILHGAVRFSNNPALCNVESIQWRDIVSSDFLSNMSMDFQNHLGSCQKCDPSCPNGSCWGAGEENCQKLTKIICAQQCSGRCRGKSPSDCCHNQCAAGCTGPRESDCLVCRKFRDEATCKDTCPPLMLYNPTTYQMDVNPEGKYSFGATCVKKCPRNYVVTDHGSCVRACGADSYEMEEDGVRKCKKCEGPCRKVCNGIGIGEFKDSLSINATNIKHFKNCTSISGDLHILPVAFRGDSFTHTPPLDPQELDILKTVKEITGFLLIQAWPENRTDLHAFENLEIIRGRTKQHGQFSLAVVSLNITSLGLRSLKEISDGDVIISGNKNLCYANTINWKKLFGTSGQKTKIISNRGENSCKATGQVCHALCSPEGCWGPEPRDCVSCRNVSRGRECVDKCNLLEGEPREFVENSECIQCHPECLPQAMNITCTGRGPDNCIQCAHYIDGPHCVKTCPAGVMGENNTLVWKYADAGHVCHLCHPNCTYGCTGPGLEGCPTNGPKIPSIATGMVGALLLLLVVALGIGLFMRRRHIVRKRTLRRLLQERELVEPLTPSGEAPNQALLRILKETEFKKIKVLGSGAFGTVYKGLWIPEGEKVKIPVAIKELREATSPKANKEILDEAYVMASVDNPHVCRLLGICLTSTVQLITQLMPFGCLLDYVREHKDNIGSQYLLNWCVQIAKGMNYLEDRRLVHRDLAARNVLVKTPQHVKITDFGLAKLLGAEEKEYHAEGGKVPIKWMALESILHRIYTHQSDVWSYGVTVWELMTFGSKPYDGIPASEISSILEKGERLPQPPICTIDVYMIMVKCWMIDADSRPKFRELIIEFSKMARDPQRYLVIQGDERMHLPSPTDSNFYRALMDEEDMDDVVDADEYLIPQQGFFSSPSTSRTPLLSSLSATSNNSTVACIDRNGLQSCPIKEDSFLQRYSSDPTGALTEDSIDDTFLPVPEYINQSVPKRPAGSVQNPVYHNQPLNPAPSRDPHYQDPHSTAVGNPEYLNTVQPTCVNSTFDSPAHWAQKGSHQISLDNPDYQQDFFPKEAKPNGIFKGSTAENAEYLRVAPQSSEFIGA

| SMILES | IC50 (EGFR) [µM] | IC50 (VEGFR2) [µM] | solubility at 8 h [1] [µg/mL] | fraction unbound at 2 h, 2 µM (melanin) |
| --- | --- | --- | --- | --- |
| CNC(=O)c1cccc(F)c1Sc1ccc2c(/C=C/c3ccc(CN4CCCC4)cn3)n[nH]c2c1 [Compound I-68, 3-fluoro-N-methyl-2-({3-[(E)-2-{5-[(pyrrolidin-1-yl)methyl]pyridin-2-yl}ethenyl]-1H-indazol-6-yl}sulfanyl)benzamide] | 6 to 60 | 0.001 to 0.01 | – | – |
| CNC(=O)c1ccccc1Sc1ccc2c(/C=C/c3cncc(OCCN4CCCC4)c3)n[nH]c2c1 [Compound I-22] | > 60 | – | 57.4 (≈ 115 µM) | 0.01 to 0.05 |
| O=C(NC1CC1)c1ccccc1Sc1ccc2c(C#Cc3ccc(OCCN4CCCC4)cn3)n[nH]c2c1 [Compound I-139] | > 60 | – | – | – |
| CCN(CC)Cc1ccc(/C=C/c2n[nH]c3cc(Sc4c(F)cccc4C(=O)NC4CC4)ccc23)nc1 [Compound I-85] | 6 to 60 | 0.001 to 0.01 | – | – |
| CN1CCC(CCOc2ccc(/C=C/c3n[nH]c4cc(Sc5ccccc5C(=O)NC5CC5)ccc34)nc2)CC1 [Compound I-42] | > 60 | – | – | 0.01 to 0.05 |
| O=C(NC1CC1)c1cc(F)ccc1Sc1ccc2c(/C=C/c3cc(CCN4CCCC4)ccn3)n[nH]c2c1 [Compound I-135] | > 60 | – | – | – |
| CNC(=O)c1cc(F)ccc1Sc1ccc2c(/C=C/c3cnn(CCCN4CCCC4)c3)n[nH]c2c1 [Compound I-106] | 6 to 60 | – | – | > 0.05 |
| CCNC(=O)c1cc(F)ccc1Sc1ccc2c(/C=C/c3cc(CCCN4CCCC4)ccn3)n[nH]c2c1 [Compound I-122] | > 60 | – | – | – |
| CNC(=O)c1ccccc1Sc1ccc2c(/C=C/c3ccc(OCCN4CCCC4)nc3)n[nH]c2c1 [Compound I-19, N-methyl-2-((3-((E)-2-(6-(2-(pyrrolidin-1-yl)ethoxy)pyridin-3-yl)ethenyl)-1H-indazol-6-yl)thio)benzamide] | > 60 | – | – | 0.01 to 0.05 |
| O=C(NC1CC1)c1ccccc1Nc1ccc2c(/C=C/c3ccc(CN4CCCC4)cn3)n[nH]c2c1 [Compound I-82, N-cyclopropyl-2-({3-[(E)-2-{5-[(pyrrolidin-1-yl)methyl]pyridin-2-yl}ethenyl]-1H-indazol-6-yl}amino)benzamide] | – | ≤ 0.001 | 294 (≈ 614 µM) | 0.01 to 0.05 |
| O=C(NC1CC1)c1ccccc1Sc1ccc2c(/C=C/c3cccc(CN4CCCC4)n3)n[nH]c2c1 [Compound I-117] | > 60 | – | – | 0.01 to 0.05 |
| CCN(CC)CCc1ccc(/C=C/c2n[nH]c3cc(Sc4ccc(F)cc4C(=O)NC4CC4)ccc23)nc1 [Compound I-109] | – | ≤ 0.001 | 1950 (≈ 3680 µM) | > 0.05 |
| O=C(NC1CC1)c1ccccc1Sc1ccc2c(/C=C/c3cc(CCCN4CCCC4)ccn3)n[nH]c2c1 [Compound I-120] | > 60 | ≤ 0.001 | – | – |
| CCNC(=O)c1ccccc1Sc1ccc2c(/C=C/c3cnn(CCCN4CCCC4)c3)n[nH]c2c1 [Compound I-101] | 6 to 60 | ≤ 0.001 | – | – |
| CCNC(=O)c1cccc(F)c1Sc1ccc2c(/C=C/c3cc(CN4CCCC4)ccn3)n[nH]c2c1 [Compound I-114] | > 60 | > 0.1 | – | – |
| CCNC(=O)c1cccc(F)c1Sc1ccc2c(/C=C/c3cccc(CN4CCCC4)n3)n[nH]c2c1 [Compound I-113, N-ethyl-3-fluoro-2-({3-[(E)-2-{6-[(pyrrolidin-1-yl)methyl]pyridin-2-yl}ethenyl]-1H-indazol-6-yl}sulfanyl)benzamide] | – | > 0.1 | – | – |

| SMILES | IC50 (EGFR) [µM] | IC50 (VEGFR2) [µM] | solubility at 8 h [1] [µg/mL] | fraction unbound at 2 h, 2 µM (melanin) |
| --- | --- | --- | --- | --- |
| O=C(NC1CC1)c1cc(F)ccc1Sc1ccc2c(/C=C/c3cc(OCCN4CCCC4)ccn3)n[nH]c2c1 [Compound I-118] | > 60 | – | – | ≤ 0.01 |
| CCNC(=O)c1ccc(Sc2ccc3c(/C=C/c4ccc(CN(CC)CC)cn4)n[nH]c3c2)cc1F [Compound I-87, 4-({3-[(E)-2-{5-[(diethylamino)methyl]pyridin-2-yl}ethenyl]-1H-indazol-6-yl}sulfanyl)-N-ethyl-2-fluorobenzamide] | > 60 | > 0.1 | – | – |
| O=C(NC1CC1)c1ccc(F)cc1Sc1ccc2c(/C=C/c3ccc(CN4CCCC4)cn3)n[nH]c2c1 [Compound I-79] | – | ≤ 0.001 | 80.4 (≈ 157 µM) | > 0.05 |
| O=C(NC1CC1)c1cccc(F)c1Sc1ccc2c(/C=C/c3cc(CCCN4CCCC4)ccn3)n[nH]c2c1 [Compound I-123] | > 60 | – | – | – |
| CNC(=O)c1ccccc1Sc1ccc2c(/C=C/c3ccnn3CCN3CCCC3)n[nH]c2c1 [Compound I-25] | – | > 0.1 | 216 (≈ 457 µM) | > 0.05 |
| CCNC(=O)c1cccc(F)c1Sc1ccc2c(/C=C/c3cccc(CCN4CCCC4)n3)n[nH]c2c1 [Compound I-129] | > 60 | – | – | – |
| CCN(CC)CCc1ccc(/C=C/c2n[nH]c3cc(Sc4cc(F)ccc4C(=O)NC4CC4)ccc23)nc1 [Compound I-108] | – | ≤ 0.001 | – | – |
| CCNC(=O)c1cccc(F)c1Sc1ccc2c(/C=C/c3cc(CCCN4CCCC4)ccn3)n[nH]c2c1 [Compound I-116, N-ethyl-3-fluoro-2-({3-[(E)-2-{4-[3-(pyrrolidin-1-yl)propyl]pyridin-2-yl}ethenyl]-1H-indazol-6-yl}sulfanyl)benzamide] | > 60 | – | – | 0.01 to 0.05 |
| O=C(NC1CC1)c1cc(F)ccc1Sc1ccc2c(/C=C/c3cnn(CCCN4CCCC4)c3)n[nH]c2c1 [Compound I-46] | – | ≤ 0.001 | – | – |
| CCNC(=O)c1ccc(F)cc1Sc1ccc2c(/C=C/c3cnn(CCCN4CCCC4)c3)n[nH]c2c1 [Compound I-103, N-ethyl-4-fluoro-2-({3-[(E)-2-{1-[3-(pyrrolidin-1-yl)propyl]-1H-pyrazol-4-yl}ethenyl]-1H-indazol-6-yl}sulfanyl)benzamide] | – | ≤ 0.001 | – | – |
| O=C(NC1CC1)c1cc(F)ccc1Sc1ccc2c(/C=C/c3cccc(CN4CCCC4)n3)n[nH]c2c1 [Compound I-138] | > 60 | – | – | – |
| O=C(NC1CC1)c1ccccc1Sc1ccc2c(/C=C/c3cc(CCN4CCCC4)ccn3)n[nH]c2c1 [Compound I-133, N-cyclopropyl-2-((3-((E)-2-(4-(2-(pyrrolidin-1-yl)ethyl)pyridin-2-yl)ethenyl)-1H-indazol-6-yl)thio)benzamide] | > 60 | – | – | – |
| O=C(NC1CC1)c1cc(F)ccc1Sc1ccc2c(/C=C/c3cc(CCCN4CCCC4)ccn3)n[nH]c2c1 [Compound I-119] | > 60 | ≤ 0.001 | – | – |
| O=C(NC1CC1)c1ccccc1Sc1ccc2c(/C=C/c3cccc(CCN4CCCC4)n3)n[nH]c2c1 [Compound I-134] | > 60 | 0.001 to 0.01 | – | – |
| O=C(NC1CC1)c1cc(F)ccc1Sc1ccc2c(/C=C/c3cc(CN4CCCC4)ccn3)n[nH]c2c1 [Compound I-137] | > 60 | – | – | – |
| O=C(NC1CC1)c1cc(F)ccc1Sc1ccc2c(/C=C/c3cccc(CCN4CCCC4)n3)n[nH]c2c1 [Compound I-136] | > 60 | – | – | – |
